Test results as given in paper PMC12508156, “Non-canonical dihydrolipoyl transacetylase promotes chemotherapy resistance via mitochondrial tetrahydrofolate signaling” (Nature Communications, 2025).
Several values for one entry are separate records, joined by “and”; a condition that tells them apart may be missing. Equal values may be shown once.

Assays:
[1] = test system: KB-3-1 cells; details: read-out: cisplatin IC50; parental KB-3-1 cells; cited from earlier work
Description: The RNAi library contains 328 shRNA clones, and each gene was targeted by 2 ~ 8 clones (Fig. 1a). Eleven genes, including DLAT, were selected as unexplored lead hits with cisplatin-sensitizing potential and were further evaluated in A549^cisR, H1299, and KB-3-1^cisR, and two acetyltrans ...

[2] = target: T1, pyruvate dehydrogenase complex (PDC) (Homo sapiens, UniProt P08559+P09622+P10515); assay: PDC activity (PDH enzyme activity microplate assay); assay type: cell-based; details: cisplatin 24 h, NADH production from PDH reaction, normalised, n=1-3: biological replicates, listed as cis
T1 construct: endogenous in cells; host or cells: A549cisR and KB-3-1cisR cells (lysates; Abcam PDH Enzyme Activity Microplate Assay Kit)
T1 sequence (P08559 30-390): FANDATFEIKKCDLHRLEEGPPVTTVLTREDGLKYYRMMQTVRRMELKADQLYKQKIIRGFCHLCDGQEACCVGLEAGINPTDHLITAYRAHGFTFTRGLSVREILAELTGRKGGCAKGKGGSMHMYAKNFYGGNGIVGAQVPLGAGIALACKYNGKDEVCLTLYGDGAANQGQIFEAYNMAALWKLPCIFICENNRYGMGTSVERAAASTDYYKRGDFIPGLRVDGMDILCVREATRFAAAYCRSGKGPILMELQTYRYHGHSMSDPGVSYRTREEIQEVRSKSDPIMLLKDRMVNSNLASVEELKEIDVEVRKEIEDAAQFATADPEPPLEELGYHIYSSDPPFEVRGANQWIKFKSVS
T1 sequence (P10515 87-647): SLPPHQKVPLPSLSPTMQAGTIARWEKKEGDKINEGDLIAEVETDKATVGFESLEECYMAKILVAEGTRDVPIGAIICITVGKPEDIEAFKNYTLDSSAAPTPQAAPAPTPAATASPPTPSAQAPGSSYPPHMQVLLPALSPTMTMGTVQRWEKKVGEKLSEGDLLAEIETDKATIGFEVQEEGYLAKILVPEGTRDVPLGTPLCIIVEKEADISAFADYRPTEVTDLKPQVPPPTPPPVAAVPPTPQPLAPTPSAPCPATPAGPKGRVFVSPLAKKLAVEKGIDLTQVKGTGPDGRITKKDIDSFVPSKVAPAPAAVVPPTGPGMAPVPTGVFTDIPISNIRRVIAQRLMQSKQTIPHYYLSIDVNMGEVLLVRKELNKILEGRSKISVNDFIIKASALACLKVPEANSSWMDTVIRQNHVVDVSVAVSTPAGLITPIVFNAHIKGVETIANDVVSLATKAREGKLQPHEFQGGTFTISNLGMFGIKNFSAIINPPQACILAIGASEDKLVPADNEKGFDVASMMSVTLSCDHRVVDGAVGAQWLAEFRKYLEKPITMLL
T1 sequence (P09622 36-509): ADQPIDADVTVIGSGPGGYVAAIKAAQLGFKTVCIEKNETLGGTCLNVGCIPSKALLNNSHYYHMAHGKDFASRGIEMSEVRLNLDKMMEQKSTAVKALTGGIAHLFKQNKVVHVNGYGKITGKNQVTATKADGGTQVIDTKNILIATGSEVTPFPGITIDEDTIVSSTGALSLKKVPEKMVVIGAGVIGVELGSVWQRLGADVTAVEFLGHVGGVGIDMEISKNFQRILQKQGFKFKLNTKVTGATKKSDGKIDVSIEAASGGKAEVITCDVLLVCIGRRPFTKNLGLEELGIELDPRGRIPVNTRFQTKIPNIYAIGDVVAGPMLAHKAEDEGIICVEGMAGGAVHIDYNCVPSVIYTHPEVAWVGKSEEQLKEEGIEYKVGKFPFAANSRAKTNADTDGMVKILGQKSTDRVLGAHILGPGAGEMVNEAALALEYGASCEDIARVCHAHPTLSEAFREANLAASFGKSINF
Protocol: Cellular metabolic states were examined through various assays. […] Intracellular H2O2, NADPH, acetyl-CoA, and GSH/GSSG ratios were quantified using commercial assay kits as listed in the Reagents. Intracellular ATP levels were determined utilizing the ATP bioluminescent somatic cell assay and normalized to the total protein concentrations. The de novo synthesized RNA and proteins were assessed in cancer cells using commercial assays following the manufacturer’s protocols. In brief, O-propargyl-puromycin or uridine analog, 5-EU, was applied to stop translation or modify RNA. Polypeptides or modified RNA were measured using fluorescent azide with Ex/Em at 494/521 nm. PDC activity was determined by measuring the reduction of NAD+ to NADH during the conversion of pyruvate into acetyl-CoA. To estimate the activity of the pyruvate dehydrogenase complex (PDC), PDH (E1 subunit) activity was measured using the Pyruvate Dehydrogenase Enzyme Activity Microplate Assay Kit (Abcam) according to the manufacturer’s instructions. Briefly, A549^cisR and KB-3-1^cisR cells with or without DLAT knockdown were harvested, washed with PBS, and lysed using the supplied detergent solution. After quantifying protein concentration, lysates were diluted to 10 mg/ml in 1 ⅹ buffer, and 200 μl of assay solution was added to each well, and absorbance at 450 nm was measured kinetically every 30 s for 30 min at room temperature using a microplate reader.

## N.N.[Cl][Pt][Cl] [cisplatin]
[1]
  IC50: 8.4 µM
[2]; A549cisR pLKO.1
  PDC activity: 0.9844 and 1.125 and 1.078
[2]; A549cisR shDLAT
  PDC activity: 0.375 and 0.4219
[2]; KB-3-1cisR pLKO.1
  PDC activity: 1.12 and 1.073
[2]; KB-3-1cisR shDLAT
  PDC activity: 0.06728 and 0.05145 and 0.04749
